Here are results for one molecule from patent EP4458353A1, “ANTICARIOGENIC SYNERGETIC COMPOSITION FOR ORAL CARE” (SkyLab AG, priority 2023, dated 2024).

Assay [1] concerns S. mutans biofilms. Nature of the assay: Biofilm formation on hydroxyapatite disks (CFU in resuspended biofilm). It counts as cell-based. Particulars: for %N Control: percentage of S. mutans CFU on the disk in control experiment; for N S.mutans (CFU/mL): resuspended biofilm from hydroxyapatite disks, 64h incubation. The protocol:
Example ? 6. Anti-biofilm activity of individual substances selected from naringenin, guava leaf extract, and lysozyme, or the composition thereof, is assessed from the rate of biofilm formation on hydroxyapatite disks, with the use of the following procedure: • 1) Prepare the heart-brain broth (DM106D, Mast Group Ltd., U.K.) and Columbian agar supplemented with defibrinated blood (OOO "GEM" Cat. No BP-023) in accordance with the manufacturer's instruction • 2) All stages of preparation of the bacterial culture suspensions were similar to those described in Example 1. • 3) Prepare saliva, which is required for biofilm formation and provides the bacteria adhesion to the surface of hydroxyapatite disks. […] Centrifuge the collected saliva at 12 000 rpm for 30 minutes at 4°C. Harvest the supernatant into the clean tube and subject to pasteurization at 65°C for 30 minutes followed by one more centrifugation.
The efficacy of saliva pasteurization is assessed from direct inoculation on Columbian blood agar. The plates are incubated under aerobic and anaerobic conditions at 37°C for 72 hours. The saliva is considered sterile if no growth of bacterial and fungal colonies is observed within 72 hours of observation.
Store the saliva at temperature -80 °C before the use. • 4) To form the salivary film on the surface of hydroxyapatite disk put three sterile disks (sterilization by autoclaving at 132 °C for 20 min) in each of 9 Petri dishes 40 mm in diameter abd incubate in 3 mL of the pasteurized saliva at room temperature for 4 hours with gentle shaking on orbital shaker. Then remove the saliva and add 3 mL of nutritive medium containing 1.2 mL of heart-brain broth; 1.2 mL of pasteurized saliva; 0.6 mL of S. mutans suspension at concentration of 10^6 CFU/mL into the Petri dish. The formation of S. mutans biofilm on the disk surface is achieved at 37°C under the atmosphere of 5 % CO2 in the environment, with gentle shaking on orbital shaker for 16 hours. • 5) After 16-hour incubation remove old nutritive medium from the dishes and add a fresh portion of heart-brain broth containing S. mutans suspension and the pasteurized saliva. Add the active substances selected from naringenin, guava leaf extract and lysozyme or combination thereof to final concentration 0.1 or 1.0 mg/mL. Repeat the procedure of medium replacement twice daily within […] and 8 h after the first change. • 6) To remove the biofilm formed in the disk surface take the disks away from Petri dishes after the incubation for 2 days and rinse in the large volume of PBS (pH 7.2). Then place the disks into sterile Petri dishes with 3 mL of PBS (pH 7.2) and shake vigorously on the orbital shaker for 30 minutes. […]

Assay [2] concerns S. mutans. The settings on record: naringenin at concentration 200 µg/mL; cited from earlier work.
The test system of assay [3] is Streptococcus mutans No 22081. Nature of the assay: Growth of planktonic culture in liquid nutritive medium (CFU count after 5 h). Type of assay: cell-based. Particulars: S. mutans planktonic culture; 1 mg/mL; 5 h incubation. The protocol: Example ? 3. Antibacterial activity of naringenin, guava leaf extract and lysozyme was assessed from the growth pattern of the reference strain Streptococcus mutans No 22081 (UNU Collection under I. I. Mechnikov Research Institute if Vaccines and sera) in liquid nutritive medium according to the procedure: • 1) Prepare the heart-brain broth (DM106D, Mast Group Ltd., U.K.) and Columbian agar supplemented with defibrinated blood (OOO "GEM" Cat. No BP-023) in accordance with the manufacturer's instruction. • 2) Using microbiological loop prepare the suspension (at concentration 1.5·10^8 CFU/mL) of 24 hour agar culture of S. mutans in the sterile buffered saline (BS) under visual control with McFarland standard 0.5. […] Prepare the composition of naringenin 0.33 mg/mL, lysozyme 0.33 mg/mL, and guava leaf extract 0.33 mg/mL. • 4) Put the plate with the samples into the incubator with 5% CO2 atmosphere, and incubate at 37°C for 5 h on shaking apparatus. • 5) After the 5 h incubation reinoculate the agar nutritive medium with the planktonic S. mutans culture to count CFU per 1 mL of medium. • 6) Perform optical density (OD) measurements using multimodal microplate reader at the wavelength 620 nm before the incubation (OD0) and then after the culture growth for 5 h ODt=5). […]

Turning to `O=C1C[C@@H](c2ccc(O)cc2)Oc2cc(O)cc(O)c21` [Naringenin, naringenin], in assay [1] (Csubstance 0.1 mg/mL), the “%N Control” value was found to be 66.7% and the “N S.mutans (CFU/mL)” value is on record as 2.8·10^6 CFU/mL. For the same molecule, in assay [1] (Csubstance 1.0 mg/mL), the “%N Control” value was found to be 50.0% and the “N S.mutans (CFU/mL)” value is 2.1·10^6 CFU/mL. Also, the biofilm formation entry in assay [2] is “virtually completely inhibited”. In assay [3], the “% of CFU obtained for control” value is 4.8% and the “∑ CFU, mL” value was 4.3x10^7 CFU, mL.
